63 compounds from PubChem BioAssay AID2305 (GlaxoSmithKline (GSK), 2010) can be followed below.

For the experiment, the system named is P. falciparum 3D7 growth, pLDH absorbance. Briefly: P. falciparum 3D7 growth inhibition, dose response, strain 3D7 (AID 2305).

For `CC(C)C[C@@H](NC(=O)NC1CCC(CCN2[C@@H]3CC[C@H]2CC(OC(=O)C(CO)c2ccccc2)C3)CC1)C(O)(c1ccccc1)c1ccccc1` (stereo partly drawn), the IC50 – broadly, the concentration needed to halve the response being measured – was determined as 1070 nM.

As to `Cc1cccc2c(C(=O)NC3CCN(Cc4ccccc4)CC3)cc(-c3cccnc3)nc12`, the IC50 came out at 1380 nM. This IC50 and that of the compound before are within 1.5-fold of each other. For `COC(=O)Cc1ccc(N)c2ccccc12` the value was 700 nM. For `O=C(Cn1c(CCc2cccc(F)c2F)cc(=O)c2cccnc21)N(CCCn1ccnc1)Cc1ccc(-c2ccc(C(F)(F)F)cc2)cc1` the value was 800 nM; for `O=C(NCCCCN1CCC(c2ccc3c(c2OCc2ccccn2)CCCC3)CC1)c1ccc(NC(=O)c2ccc(Cl)cc2)cc1`, 800 nM. With `O=C(Nc1ccc(Cl)cc1C(=O)Nc1cccc(F)c1)c1ccc([N+](=O)[O-])cc1` the figure was 370 nM; with `Cc1ccc(NC(=O)NC2CCN(CCCCCNC(=O)/C=C/c3ccc(Cl)c(Cl)c3)CC2)cc1C`, 730 nM; with `CCOc1ccc2c(NN=Cc3c4ccccc4cc4ccccc34)cc(C)nc2c1`, 1070 nM. Consider `Cc1cc(CNC(=O)[C@H](CC2CCCCC2)Nc2ccc(C#N)c3ccccc23)c(C(F)(F)F)o1`, for which the IC50 came to 1180 nM. For `O=C(NC1CCC(CN2CCC(c3c[nH]c4ccccc34)CC2)CC1)c1cc2ccccc2o1` (stereo not drawn) the value was 970 nM.

In the case of `COc1ccc2ncc(F)c(CCN3CCC(NCc4cc(F)c5c(c4)OCCO5)CC3)c2n1`, the IC50 came out at 350 nM. For the compound `CC(C)c1ccc(NC(=O)c2ccc(C(=O)NC3CCN(CC4CCCCC4)CC3)cc2)cc1`, the IC50 amounted to 650 nM. Compared with the last compound, the IC50 is about 1.9-fold higher. For `Cc1ccc2c(=O)cc(CCc3cccc(F)c3F)n(CC(=O)N(Cc3ccc(-c4ccc(C(F)(F)F)cc4)cc3)C3CCN(C)CC3)c2n1` the value was 1260 nM; for `COc1ccc(-c2ccc(NC(=O)c3cccc(Cl)c3)cc2)cc1CN1CCC(O)CC1`, 710 nM; for `O=C(Nc1ccc(Oc2ccccc2)cc1)N(CCN1CCCC1)Cc1ccc(-c2ccc(CN3CCNCC3)cc2)cc1`, 890 nM. For `Cc1c(C)c2c(c(C)c1O)CCC(C)(CCC(=O)O)O2` (stereo not drawn), the IC50 came out at 690 nM. With `Cc1ccc(S(=O)(=O)N(CCCNCc2cccc(O)c2)c2ccccc2)cc1` the figure was 770 nM; with `CN1CCN(c2ccnc3ccc(NC(=O)Cc4ccc(Br)c5ccccc45)cc23)CC1`, 810 nM. For `CC(C)(C)c1nn(-c2ccccc2)c2[nH]c(=O)c(CNC3CCCC3)cc12` the value was 850 nM. `Cc1nc(N)nc(N)c1-c1ccc2ccccc2c1`: the IC50 was 870 nM. With `CC1(C)C[C@@H]2C[C@@](C)(CN2C(=O)c2cc(C(C)(C)C)nn2Cc2ccccc2)C1`, the IC50 was 1090 nM. With `O=C(Nc1ccc(-c2ccc(-c3nc4ccccc4[nH]3)s2)cc1)c1ccncc1` the figure was 790 nM; with `CCN(CC)CCN(Cc1ccc(-c2ccc(C(F)(F)F)cc2)cc1)C(=O)Cn1c(CCc2ccc(F)c(F)c2F)nc(=O)c2ccccc21`, 790 nM; with `CC(C)C[C@@H](C(=O)N[C@@H](CCCCNC(=O)OCc1ccccc1)C(=O)Nc1nccs1)[C@H](C)N(O)C=O`, 190 nM.

For the compound `Cc1cc(NN=Cc2ccccc2Cl)c2cc(C(F)(F)F)ccc2n1`, the IC50 was 860 nM. Against the preceding compound, the IC50 is about 4.5-fold higher.

`Cc1cccc2[nH]c(-c3cccc(-c4cccc(CNCCN5CCNCC5)c4)c3)nc12` had an IC50 of 970 nM. With `O=C(NCc1ccc(F)cc1)Nc1ccc(-c2ccc(-c3nc4ccccc4[nH]3)cc2)cc1` the figure was 90 nM. With `CCN(CC)CCCC(C)Nc1cc(C)nc2cc(Cl)ccc12` (stereo not drawn) the figure was 730 nM; with `CCN(CC)CCCCOc1ccc2c(c1)C(=O)c1cc(OCCCCN(CC)CC)ccc1-2`, 760 nM.

`Cc1cccc(CN2CCC(CNC(=O)c3cc4c(-c5ccccc5F)nn(C)c4s3)CC2)c1` returned an IC50 of 1090 nM.

In turn, `Cc1ccc(F)cc1S(=O)(=O)NCC(C)c1ccc(NC(=O)Nc2cccc(F)c2)cc1` (stereo not drawn) registered an IC50 of 970 nM. In turn, `c1ccc(-c2nc(Nc3ccncc3)sc2-c2ccccc2)cc1` returned an IC50 of 810 nM. As to `O=C(Nc1ccccc1F)NC1CCN(c2ccnc(Nc3ccc(F)cc3)n2)C1` (stereo not drawn), the IC50 is 850 nM.

In turn, `CCOc1cc(Cc2cnc(N)nc2N)cc(OC)c1OC` had a half-inhibitory concentration (IC50) of 910 nM. This IC50 and that of the compound before are within 1.5-fold of each other. With `O=C(NCc1ccc(Cl)c(Cl)c1)[C@H]1CNCCN1C(=O)c1ccccc1`, the IC50 was found to be 950 nM. For `Cc1cccc2[nH]c(-c3ccc(-c4cccc(NC(=O)NCc5cccc(F)c5)c4)cc3)nc12` the value was 850 nM; for `Cc1cc(N(C)C2CCN(C)C2)nc(Nc2ccc(Cl)cc2)n1` (stereo not drawn), 340 nM. With `CCCS(=O)(=O)c1nc(S(=O)(=O)c2ccc(Cl)cc2)c(N2CCCCC2)s1`, the half-maximal inhibitory concentration (IC50) is 1290 nM. Compound `Cn1ccnc1CNC(=O)c1ccc(-c2cccc(-c3nc4ccc(F)cc4[nH]3)c2)cc1` gave an IC50 of 980 nM.

`COc1cccc(CC(=O)N2CCC(n3c(C)nc4ccc(F)cc43)CC2)c1` registered an IC50 of 910 nM. This IC50 and that of the compound before are within 1.5-fold of each other.

In turn, `CCCNc1nc(Nc2ccccc2C)nc2ccccc12` came in with an IC50 of 890 nM. With `CCCCCC(C)c1cc(O)c2c(c1)OC(C)(C)C=C2C1=CCN(Cc2ccccc2)CC1` (stereo not drawn) the figure was 780 nM; with `Cc1cc(N)c2cc(NC(=O)c3cccc(C(=O)Nc4ccc5nc(C)cc(N)c5c4)c3)ccc2n1`, 260 nM. As for `CCOP(=O)(OCC)c1ccc(OC)c(-c2ccc[nH]2)c1`, the IC50 was 1190 nM. For `c1cc(CN2CCCCC2)cc(OCCCNc2ccnc3ccccc23)c1` the value was 430 nM; for `CC(C)c1sc(N2CCCCC2)nc1C(=O)Nc1ccc(F)cc1C(F)(F)F`, 240 nM.

As for `Cc1cccc(C(=O)NC(NC(=S)Nc2ccc([N+](=O)[O-])cc2)C(Cl)(Cl)Cl)c1` (stereo not drawn), the IC50 worked out at 740 nM. Turning to `CC1(C)CCCN(c2ncc(-c3cccc(CNCc4ccccc4O)c3)cn2)C1`, the IC50 was 890 nM.

In turn, `CC(C)(C)CC(C)(C)c1ccc(O)c(C(=O)Nc2ccc([N+](=O)[O-])cc2)c1` returned an IC50 of 770 nM. For `N#CC(NC(=O)C=Cc1ccccc1)c1ccccc1` (stereo not drawn) the value was 180 nM; for `C=CCOc1ccc(C(=O)Nc2nonc2-c2ccc(OC)c(OC)c2)cc1`, 640 nM; for `COc1ccc(-c2cncc(-c3ccc(OC)c(OC)c3)n2)cc1OC`, 780 nM.

`O=C(NC1CCC(CN2CCC(c3c[nH]c4ccccc34)CC2)CC1)c1csc(-c2ccc(C(F)(F)F)cc2Cl)n1` (stereo not drawn) came in with an IC50 of 830 nM.

In turn, `COc1cc(C(=O)NCCCN2CCN(c3cccc(Cl)c3)CC2)ccc1-c1nc2cc(Cl)c(F)cc2[nH]1` had an IC50 of 1020 nM. Turning to `CCN(CC)CCCN(CCCN(CC)CC)c1cc(C)nc(Nc2ccc(Br)cc2)n1`, the IC50 was 200 nM.

With `Cc1[nH]c(C)c(-c2ccc(-c3ccc(C#N)cc3)nc2)c(=O)c1Br`, the IC50 worked out at 980 nM. With `O=C(Nc1ccc(C(=O)OC[C@@H]2CCCN3CCCC[C@H]23)cc1)c1ccc(Cl)c(Cl)c1` the figure was 720 nM; with `CC(C)CCN1CCC(Oc2ccc(NC(=O)c3cccs3)cc2Cl)CC1`, 340 nM; with `CC(C)(C)Nc1cc(C2CC2)nc(-c2ccccn2)n1`, 680 nM.

For the compound `Cc1ccc(Nc2cc(C)nn2-c2nc(C)cc(=O)[nH]2)cc1`, the IC50 amounted to 860 nM. With `COc1ccc2c(ccc3c2ncc2c(=O)n(-c4ccccc4)[nH]c23)c1` the figure was 520 nM; with `CCOc1cc(C(=O)NCC2CCN(CC3CCCCC3)CC2)ccc1-c1nc2ccc(Cl)cc2[nH]1`, 560 nM. `COc1ccc(F)cc1-c1ccc(C(=O)N2CCCN(c3ccc(C#N)cn3)CC2)cc1` came in with a 50% inhibitory concentration (IC50) of 110 nM.
